Nine compounds from PubChem BioAssay (NCI) can be followed below.

Test systems include UO-31 renal; HOP-92 NSCLC; TK-10 renal; NCI/ADR-RES ovarian; HOP-62 NSCLC; OVCAR-3 ovarian; M14 melanoma; RXF 393 renal; SK-MEL-28 melanoma; CCRF-CEM leukemia.
What all share (experiment): NCI anticancer screen, dose series, 48 h

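These data come from cells grown in 96-well plates and exposed to compound for 48 hours at five concentrations. GI50: concentration for 50% inhibition of growth. At the TGI there is no net growth.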

As for `Cc1cc(C)c(C#N)c(Sc2nc(C)c([N+](=O)[O-])c(C)c2C#N)n1`, the GI50 in the assay on UO-31 renal was 1.81 µM; with HOP-92 NSCLC, 2.68 µM; in the assay on TK-10 renal, 3.27 µM; in the assay with NCI/ADR-RES ovarian, 4.01 µM; in the assay on HOP-62 NSCLC it was 3.52 µM; in the assay on OVCAR-3 ovarian, 2.01 µM. Besides, the GI50 was 3.07 µM in the assay with M14 melanoma, 2.16 µM with RXF 393 renal and 3.12 µM in the assay on SK-MEL-28 melanoma. The TGI in the assay with UO-31 renal stood at 4.01 µM; with HOP-92 NSCLC it was 7.88 µM; with TK-10 renal, 8.28 µM; in the assay with NCI/ADR-RES ovarian it was 33.1 µM; with HOP-62 NSCLC, 12.7 µM; with OVCAR-3 ovarian, 3.88 µM. The TGI in the assay with M14 melanoma turned out to be 10.4 µM; with RXF 393 renal it was 5.55 µM; in the assay on SK-MEL-28 melanoma it was 12.4 µM.

On to `O=C(Nc1ccccc1I(=O)=O)C1CCCCC1`, for which the GI50 in the assay on UO-31 renal, with HOP-92 NSCLC, in the assay with TK-10 renal, with NCI/ADR-RES ovarian, with CCRF-CEM leukemia and with OVCAR-3 ovarian was > 100 µM in each case. For the same compound, the GI50 in the assay on RXF 393 renal and in the assay on SK-MEL-28 melanoma was > 100 µM in each case. Moreover, the TGI in the assay on UO-31 renal, in the assay with HOP-92 NSCLC, in the assay on TK-10 renal, with NCI/ADR-RES ovarian, in the assay with CCRF-CEM leukemia and with OVCAR-3 ovarian was > 100 µM in each case. Moreover, the TGI in the assay with RXF 393 renal and with SK-MEL-28 melanoma was > 100 µM in each case.

With `CCCCC#Cc1c(I)n(C)c(=O)[nH]c1=O`, the GI50 in the assay with UO-31 renal is 2.59 µM; in the assay with TK-10 renal, 4.76 µM; with NCI/ADR-RES ovarian it was 6.48 µM; with CCRF-CEM leukemia, 1.74 µM; in the assay on HOP-62 NSCLC it was 16.9 µM; with OVCAR-3 ovarian, 1.54 µM. The GI50 was 2.13 µM in the assay with M14 melanoma, 2.6 µM in the assay with RXF 393 renal and 1.75 µM in the assay with SK-MEL-28 melanoma. The TGI amounted to 10.2 µM in the assay on UO-31 renal; 16 µM in the assay with TK-10 renal; 19.5 µM with NCI/ADR-RES ovarian; 3.68 µM in the assay with CCRF-CEM leukemia; 31 µM in the assay with HOP-62 NSCLC; 2.88 µM with OVCAR-3 ovarian. Besides, the values for the TGI with M14 melanoma, in the assay with RXF 393 renal and with SK-MEL-28 melanoma were 4.36 µM, 5.91 µM and 3.13 µM, respectively.

Turning to `COc1ccc(C(=O)c2cc(C)c(OC)c(C)c2)c(OC)c1NC(C)=O`, the GI50 in the assay with UO-31 renal is 0.167 µM; with HOP-92 NSCLC, 1.02 µM; in the assay with TK-10 renal, > 100 µM; in the assay on NCI/ADR-RES ovarian it was 0.131 µM; in the assay on CCRF-CEM leukemia, 2.4 µM; with HOP-62 NSCLC, 0.239 µM. In addition, the GI50 in the assay with OVCAR-3 ovarian is 0.483 µM; in the assay with M14 melanoma it was 0.15 µM; in the assay with SK-MEL-28 melanoma, 0.504 µM. Further, the TGI with UO-31 renal is > 63.1 µM; in the assay with HOP-92 NSCLC it was > 100 µM; in the assay on TK-10 renal, > 100 µM; with NCI/ADR-RES ovarian it was 0.573 µM; with CCRF-CEM leukemia, > 100 µM; in the assay on HOP-62 NSCLC, > 100 µM. Also, the TGI in the assay on M14 melanoma and with SK-MEL-28 melanoma was > 100 µM in each case.

As for `O=[N+]([O-])c1ccc(Cl)c(CNc2ncnc3c2ncn3C2CCCCO2)c1` (configuration not stated), the TGI with UO-31 renal, in the assay with HOP-92 NSCLC, in the assay with TK-10 renal, with NCI/ADR-RES ovarian, in the assay with HOP-62 NSCLC and in the assay with OVCAR-3 ovarian was > 100 µM each time. For the same compound, the TGI with M14 melanoma was > 100 µM; with RXF 393 renal, 42.6 µM; with SK-MEL-28 melanoma it was > 100 µM.

Take `COc1ccc(/C=C/c2c(C(=O)/C=C/c3ccc(C(F)(F)F)cc3)c(C)nc3ccccc23)cc1`: the GI50 with UO-31 renal is 1.11 µM; in the assay on HOP-92 NSCLC, 1.62 µM; with TK-10 renal it was 2.56 µM; in the assay with NCI/ADR-RES ovarian, 2.36 µM; in the assay with CCRF-CEM leukemia it was 0.425 µM; in the assay with OVCAR-3 ovarian, 1.64 µM. Also, the figures for the GI50 in the assay with RXF 393 renal and in the assay on SK-MEL-28 melanoma were 1.74 µM and 1.82 µM, respectively. Besides, the TGI with UO-31 renal was 2.33 µM; with HOP-92 NSCLC, 3.59 µM; with TK-10 renal it was 4.38 µM; in the assay on NCI/ADR-RES ovarian it was 7.46 µM; with CCRF-CEM leukemia it was > 100 µM; in the assay with OVCAR-3 ovarian, 3.48 µM. Further, the TGI with RXF 393 renal is 3.52 µM; with SK-MEL-28 melanoma it was 3.47 µM.

Turning to `CCCOC(=O)c1c(C)n(C)c2scc[n+]12`, the GI50 is > 100 µM with UO-31 renal; 15.1 µM in the assay on HOP-92 NSCLC; > 100 µM in the assay with TK-10 renal; > 100 µM with NCI/ADR-RES ovarian; 53.5 µM in the assay with CCRF-CEM leukemia; 44.6 µM with HOP-62 NSCLC. The GI50 in the assay with OVCAR-3 ovarian was 30.6 µM; in the assay on M14 melanoma, > 100 µM; in the assay with SK-MEL-28 melanoma, > 100 µM. For the same compound, the TGI in the assay on UO-31 renal, with HOP-92 NSCLC, in the assay on TK-10 renal, with NCI/ADR-RES ovarian, with CCRF-CEM leukemia and with HOP-62 NSCLC was > 100 µM each time. Besides, the TGI in the assay with OVCAR-3 ovarian, with M14 melanoma and in the assay with SK-MEL-28 melanoma was > 100 µM in each case.

For `NC1c2ccccc2Nc2ccccc21`, the TGI in the assay on UO-31 renal was determined as 13.4 µM; in the assay with HOP-92 NSCLC, 16.1 µM; in the assay on TK-10 renal, 29.8 µM; in the assay with CCRF-CEM leukemia, 25.7 µM; in the assay on HOP-62 NSCLC, 26.7 µM; in the assay with OVCAR-3 ovarian it was 28.9 µM. The TGI in the assay on M14 melanoma came to 15.4 µM; with RXF 393 renal it was 15.9 µM; in the assay with SK-MEL-28 melanoma, 14.2 µM.

For the compound `CC(=O)OC12C=C(C)C(C(C)C1)C1C(=O)N(CCN3CCCCC3)C(=O)C12` (configuration not stated), the GI50 in the assay with UO-31 renal, in the assay on HOP-92 NSCLC, in the assay on TK-10 renal, in the assay with NCI/ADR-RES ovarian, with CCRF-CEM leukemia and with HOP-62 NSCLC was > 50 µM in each case. For the same compound, the GI50 is > 50 µM in the assay with M14 melanoma and 19.9 µM in the assay on RXF 393 renal. The TGI in the assay on UO-31 renal, in the assay with HOP-92 NSCLC, with TK-10 renal, in the assay on NCI/ADR-RES ovarian, with CCRF-CEM leukemia and in the assay on HOP-62 NSCLC was > 50 µM each time. Besides, the TGI with M14 melanoma and with RXF 393 renal was > 50 µM throughout.
